Experiment [1] has as its target T1, Adenosine receptor A2a (Homo sapiens, UniProt P29274). Nature of the experiment: Displacement of [3H]ZM-241385 from human adenosine A2A receptor expressed in CHO cells. It counts as cell-based. For orientation: In a radioligand displacement assay an active substance lowers the binding of a labelled ligand.
Experiment [2] deals with T2, Adenosine receptor A3 (Homo sapiens, UniProt P0DMS8).
T2 sequence (P0DMS8 whole entry): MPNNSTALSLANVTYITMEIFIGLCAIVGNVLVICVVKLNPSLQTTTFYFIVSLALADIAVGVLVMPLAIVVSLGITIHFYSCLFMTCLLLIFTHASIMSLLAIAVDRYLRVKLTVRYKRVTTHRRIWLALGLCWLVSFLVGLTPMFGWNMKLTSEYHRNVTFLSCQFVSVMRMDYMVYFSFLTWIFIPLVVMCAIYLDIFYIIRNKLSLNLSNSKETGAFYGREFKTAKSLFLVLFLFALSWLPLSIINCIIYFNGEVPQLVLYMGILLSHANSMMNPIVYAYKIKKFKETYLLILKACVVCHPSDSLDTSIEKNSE
Nature of the experiment: Displacement of [125I]AB-MECA from human adenosine A3 receptor expressed in CHO cells. Format: cell-based.

The target in experiment [3] is Adenosine receptors; A1 & A2a (Homo sapiens) (UniProt P30542+P29274). Kind of experiment: Selectivity for human adenosine A1 receptor over human adenosine A2A receptor. Format: protein assay.
Sequence of Adenosine receptors; A1 & A2a (Homo sapiens) (P29274 whole entry, looked up, one chain of several): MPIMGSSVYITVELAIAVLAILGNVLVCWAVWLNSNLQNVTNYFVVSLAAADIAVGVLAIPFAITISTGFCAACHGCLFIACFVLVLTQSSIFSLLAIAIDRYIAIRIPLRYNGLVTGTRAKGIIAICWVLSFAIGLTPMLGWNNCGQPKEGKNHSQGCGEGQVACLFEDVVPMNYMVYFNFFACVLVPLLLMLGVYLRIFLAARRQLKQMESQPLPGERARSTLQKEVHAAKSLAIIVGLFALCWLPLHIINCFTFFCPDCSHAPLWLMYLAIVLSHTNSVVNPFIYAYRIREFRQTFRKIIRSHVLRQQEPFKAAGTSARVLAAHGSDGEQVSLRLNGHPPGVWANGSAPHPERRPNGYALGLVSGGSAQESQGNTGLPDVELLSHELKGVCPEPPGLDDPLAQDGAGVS
Experiment [4] addresses T3, Adenosine receptor A1 (Homo sapiens) (UniProt P30542).
T3 sequence (whole entry): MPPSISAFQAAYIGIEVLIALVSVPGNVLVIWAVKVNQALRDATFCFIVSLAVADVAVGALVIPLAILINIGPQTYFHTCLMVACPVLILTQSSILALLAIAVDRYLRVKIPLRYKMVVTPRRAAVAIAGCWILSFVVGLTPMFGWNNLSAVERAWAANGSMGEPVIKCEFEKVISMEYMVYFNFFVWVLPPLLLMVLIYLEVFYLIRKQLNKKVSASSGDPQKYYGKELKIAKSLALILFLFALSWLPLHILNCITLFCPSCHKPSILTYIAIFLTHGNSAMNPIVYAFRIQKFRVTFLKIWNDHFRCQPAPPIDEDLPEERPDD
Nature of the experiment: Activity at human adenosine A1 receptor in CHO cells assessed as effect on CPA induced inhibition of forskolin-stimulated cAMP production at 1 uM. Format: functional, cell-based. Particulars: filed as antagonist. (In general: Cyclic AMP is a second messenger, typically raised through Gs and lowered through Gi signalling.)

In experiment [5] the target is T3, Adenosine receptor A1 (Homo sapiens). Kind of experiment: Activity at human adenosine A1 receptor expressed in CHO cells assessed as effect on forskolin-stimulated cAMP production at 100 nM. Format: functional, cell-based.
Experiment [6] concerns the target T1, Adenosine receptor A2a. Nature of the experiment: Displacement of [3H]ZM241385 from human adenosine A2A receptor expressed in CHO cells at 1 uM. It counts as cell-based.
Experiment [7] addresses T4, Adenosine receptor A1 (Homo sapiens, UniProt P30542).
T4 sequence (P30542 whole entry): T3 sequence (whole entry)
Kind of experiment: Displacement of [3H]DPCPX from human adenosine A1 receptor expressed in CHO cells. Format: cell-based.

Experiment [8] concerns the target T5, Adenosine receptor A3 (Homo sapiens) (UniProt P0DMS8).
T5 sequence (whole entry): T2 sequence (P0DMS8 whole entry)
Kind of experiment: Displacement of [125I]AB-MECA from human adenosine A3 receptor expressed in CHO cells at 1 uM. It counts as cell-based.

The target of experiment [9] is T3, Adenosine receptor A1 (Homo sapiens). Kind of experiment: Displacement of [3H]DPCPX from human adenosine A1 receptor expressed in CHO cells at 1 uM. Format: cell-based.
Experiment [10] addresses Adenosine receptors; A1 & A3 (Homo sapiens) (UniProt P30542+P0DMS8). Nature of the experiment: Selectivity for human adenosine A1 receptor over human adenosine A3 receptor. Format: protein assay.
Experiment [11] concerns the target T4, Adenosine receptor A1. Nature of the experiment: Activity at human adenosine A1 receptor in CHO cells assessed as effect on CPA induced inhibition of forskolin-stimulated cAMP production. Format: functional, cell-based.
In experiment [12] the target is T3, Adenosine receptor A1 (Homo sapiens). Nature of the experiment: Activity at human adenosine A1 receptor expressed in CHO cells assessed as effect on forskolin-stimulated cAMP production at 100 uM. The settings on record: filed as inverse agonist. It counts as functional, cell-based.

Results on 16 molecules are retold here after ChEMBL document CHEMBL1141417, “2,6,8-trisubstituted 1-deazapurines as adenosine receptor antagonists” (J Med Chem, 2007).

Some results are limits rather than exact numbers.

T1 sequence (P29274 whole entry): as the sequence (P29274 whole entry, looked up, one chain of several) above

The Ki is the dissociation constant of the complex between target and ligand, obtained from inhibition or displacement. The low end stands for higher affinity, the high end for lower affinity. Regarding `Cc1nc2c(-c3ccccc3)cc(-c3ccccc3)nc2[nH]1`, the inhibition constant Ki is 375 nM (antagonist) in experiment [1] and 61 nM (antagonist) in experiment [2].
In the case of `CC(C)c1nc2c(-c3ccccc3)cc(-c3ccccc3)nc2[nH]1`, the inhibitory constant (Ki) in [1] is recorded as 230 nM (antagonist); in [2] it was 7.3 nM (antagonist). Moreover, the Ratio Ki in experiment [3] turned out to be 377. The Activity entry in experiment [4] was “Antagonist”; in experiment [5] (filed as inverse agonist), “Inverse agonist”.
Consider `OC[C@H]1O[C@@H](n2cnc3c(NC4CCCC4)ncnc32)[C@H](O)[C@@H]1O`, for which the Activity entry in experiment [5] (filed as agonist) was “Agonist”.
One may read the inhibition as the percentage by which the read-out fell short of the control. Lower therefore signals little suppression. `c1ccc(-c2cc(-c3ccccc3)c3nc(C4CCCC4)[nH]c3n2)cc1` gave an inhibition in [6] of 49%. The Ratio Ki in experiment [3] is greater than 1600. In addition, the Activity result is “Antagonist” in experiment [4] and “Inverse agonist” in [5] (filed as inverse agonist). Further, the Ki in experiment [2] is given as 6.9 nM (antagonist).
Turning to `CC(C)(C)c1nc2c(-c3ccccc3)cc(-c3ccccc3)nc2[nH]1`, the inhibition constant (Ki) in experiment [1] was 1050 nM; in experiment [2], 115 nM (antagonist); in experiment [7] it was 5.5 nM (antagonist).
For the molecule `c1ccc(Cn2cnc3c(-c4ccccc4)cc(-c4ccccc4)nc32)cc1`, the inhibition in experiment [8] is 15%; in [6] it was 2%; in experiment [9], 38%.
For the molecule `CCC(CC)c1nc2c(-c3ccccc3)cc(-c3ccccc3)nc2[nH]1`, in [10], the Ratio Ki came to 199. Also, the Ki in [1] is recorded as 247 nM (antagonist); in [2], 171 nM (antagonist); in [7], 0.87 nM (antagonist). For the same molecule, the Activity entry in experiment [4] is “Antagonist”; in [5] (filed as inverse agonist), “Inverse agonist”.
Usually IC50 stands for the concentration that gives 50% inhibition. Turning to `c1ccc(-c2cc(-c3ccccc3)c3nc(C4CCCCC4)[nH]c3n2)cc1`, the IC50 in experiment [11] is 1700 nM (antagonist). Besides, the Ratio Ki in [10] was determined as 718; in experiment [3], 215. In addition, the Ki in [1] was 194 nM (antagonist); in experiment [2] it was 637 nM (antagonist). The Activity result was “Antagonist” in experiment [4] and “Inverse agonist” in [5] (filed as inverse agonist).
As for `c1ccc(-c2cc(-c3ccccc3)c3nc[nH]c3n2)cc1`, the Ki in [1] is 39 nM (antagonist); in [2], 180 nM (antagonist); in experiment [7], 1.2 nM (antagonist). Further, the Ratio Ki in experiment [3] came out at 33.
Regarding `CCc1nc2c(C)cc(C)nc2[nH]1`, the inhibition in experiment [8] is 49%; in [6] it was 8%. The inhibitory constant (Ki) in experiment [7] is listed as 101 nM (antagonist).
As to `O=c1[nH]c2nc(-c3ccccc3)cc(-c3ccccc3)c2[nH]1`, the Ki is 192 nM (antagonist) in [1], 262 nM (antagonist) in experiment [2] and 8.6 nM (antagonist) in experiment [7].
The corresponding values for `CCc1nc2c(-c3ccccc3)cc(-c3ccccc3)nc2[nH]1` are 177 nM (antagonist), 8.5 nM (antagonist) and 2.4 nM (antagonist).
On to `CC(C)Cc1nc2c(-c3ccccc3)cc(-c3ccccc3)nc2[nH]1`, for which the Ratio Ki in experiment [10] is 45; in [3] it was greater than 300. In addition, the Ki in experiment [1] is 189 nM (antagonist); in experiment [2], 25 nM (antagonist); in experiment [7] it was 0.55 nM (antagonist). Moreover, the Activity result in experiment [4] is “Antagonist”; in experiment [5] (filed as inverse agonist), “Inverse agonist”.
For the molecule `Cn1cnc2c(NC3CCCC3)ncnc21`, the Activity entry in experiment [12] was “Inverse agonist”.
Consider `c1cnc2[nH]c(C3CCCC3)nc2c1`, for which the inhibition in experiment [8] is 0%; in experiment [6], 3%; in [9], 6%.
Take `CCCc1nc2c(-c3ccccc3)cc(-c3ccccc3)nc2[nH]1`: the Ki in experiment [1] is 114 nM (antagonist); in experiment [2], 69 nM (antagonist); in [7], 2.5 nM (antagonist).
